Results from patent US20140178411A1, “COMPOUNDS AND METHODS FOR THE TREATMENT OF CD20 POSITIVE DISEASES” (BIO-THERA SOLUTIONS, LTD., CO., priority 2012, published 2014).

Key:
tubulin = conditions: 10 μL added to 100 μL 4 mg/ml tubulin, FIG. 1
Experimental: The effect of 3AA-MDC and related metabolites on the tubulin polymerization in vitro was assessed by HTS-Tubulin Polymerization Assay Kit (BK004P, Cytoskeleton, Inc., USA). According to the instruction of kit, pre-warm the 96-well plate to 37° C. for 30 min prior to starting the assay. At the same time, the spectrophotometer (SpectraMax, Molecular Devices, USA) was set as follow: wavelength, 405 nm; temperature, 37° C.; Kinetic, 31 cycles of 1 reading per minute. Make cold G-PEM buffer (990 μL General Tubulin Buffer+10 μL GTP Stock) and keep it on ice. Prepare 4 mg/ml tubulin, 200 nM L-3AA-MDC (N2′-deacetyl-N2′-(6-maleimido-1-oxo-hexyl)maytansine), or related compounds cys-3AA-MDC, or lys-mcc-MDC, 100 μM Paclitaxel, 100 μM Nocodazole, and 1 μM 206-3AA-MDC (3AA-MDC-antibody conjugate). Add 10 μL G-PEM, 3AA-MDC, Paclitaxel, Nocodazole and 206-3AA-MDC or related metabolites into the wells, and then add 100 μL 4 mg/ml tubulin to each well. Immediately place the plate into the spectrophotometer and start recording using the kinetic setup described above.

[1] = system: human acute lymphoblastic leukemia line C.E.M.; conditions: Wolpert-DeFillippes et al. 1975; cited from earlier work

Structure (SMILES): COC(=O)Nc1nc2ccc(C(=O)c3cccs3)cc2[nH]1 [Nocodazole]
- relative activity of tubulin polymerization decreased (tubulin; 100 μM Nocodazole stock, 37° C., 405 nm): 2.5 fold

Structure (SMILES): COc1cc2cc(c1Cl)N(C)C(=O)C[C@H](OC(=O)[C@H](C)N(C)C(=O)CCCCCN1C(=O)C=CC1=O)[C@]1(C)OC1[C@H](C)[C@@H]1C[C@@](O)(NC(=O)O1)[C@H](OC)/C=C/C=C(\C)C2 (stereo partly drawn) [L-3AA-MDC, N2′-deacetyl-N2′-(6-maleimido-1-oxo-hexyl)maytansine]
- effect on tubulin polymerization (in words) (tubulin; 200 nM stock, compared with Nocodazole): more significantly inhibited the tubulin polymerization

Structure (SMILES): COc1cc2cc(c1Cl)N(C)C(=O)C[C@H](OC(=O)[C@H](C)N(C)C(C)=O)[C@]1(C)O[C@H]1[C@H](C)[C@@H]1C[C@@](O)(NC(=O)O1)[C@H](OC)/C=C/C=C(\C)C2 [Maytansine]
- concentration that inhibits C.E.M. line (as low as) [1]: 10^−7 µg/mL

Structure (SMILES): CC(=O)O[C@H]1C(=O)[C@@]2(C)[C@H]([C@H](OC(=O)c3ccccc3)[C@]3(O)C[C@H](OC(=O)[C@H](O)[C@@H](NC(=O)c4ccccc4)c4ccccc4)C(C)=C1C3(C)C)[C@]1(OC(C)=O)CO[C@@H]1C[C@@H]2O [Paclitaxel]
- relative activity of tubulin polymerization enhanced (tubulin; 100 μM Paclitaxel stock, 37° C., 405 nm): about 3 fold
